≈ marks a conversion by molar mass, not a printed value. Like-named read-outs stand apart in the source and are kept apart here.
Assays:
[1] = Studies with phosphate and glycine buffering agents (Example 3); type: physicochemical; details: buffering agents phosphate (pKa 7.21) and glycine (pKa 9.8)
Text: For example, and without limiting the foregoing disclosure, the buffering agent may be Tris, lysine, arginine, an ethylenediamine, an imidazole, a 4-(2-Hydroxyethyl)morpholine, a triethanolamine, a glucamine, a deanol (dimethylaminoethanol), phosphate, phosphate buffered saline (PBS), or a combination thereof.

[2] = cited from earlier work
[3] = aqueous buffer, cited from earlier work
[4] = Glyburide solubility in intravenous dosing solutions; type: physicochemical
[5] = Mock IV infusion: sorption of glyburide to administration sets; type: physicochemical; details: for initial drop in the glyburide concentration: PVC administration sets
Text: Thus, there was significant unpredictability in how much of the drug product would be administered to a given patient at any given time depending on various factors. […] At lower NaOH:GLY ratios, a longer period of time is required for the drug concentration to recover.

[6] = Stability of glyburide after reconstitution with Tris buffer, HPLC (Example 6); type: physicochemical; details: for Glyburide content (mg/mL) at T0 h / Glyburide content (mg/mL) at T2 h / Glyburide content (mg/mL) at T24 h: +50% excess NaOH, 0.22 um filtered, HPLC; for Recon vial pH: lyophilized formulation +50% excess NaOH
Experimental: The contents of the vial were dissolved by gentle shaking and pH after reconstitution was measured. About 1 mL of sample was withdrawn at 0, 1, 2 and 24 hours post reconstitution and filtered through 0.22 um membrane filters and analyzed by HPLC.

[7] = Drug reconstitution and dilution experiments (Example 2); details: vial reconstitution pH above 10.2; 6 mg vial, 20 ml WFI, 500 ml saline bag
Experimental: A maximum final dosing pH of 9.2 (after infusion, there is a slight drop in pH to ˜9, which is the maximum pH of a solution that can be safely infused to a patient) was used as an upper limit constraint on the reconstitution solution and dilution solution pHs. Drug reconstitution and dilution experiments were carried out.

physchem = assay: physchem
Experimental: An additional critical requirement was that, after reconstitution, the reconstituted formulation must remain sufficiently stable and soluble.
The vial pH after reconstitution (20 ml) can be used to ensure that the appropriate compounding pH was achieved during manufacture. The target reconstitution pH is 9.8 with a range of 9.2-10.2. In some aspects, the concentration after reconstitution is 0.3 mg/ml (6 mg/20 ml).

[8] = recon diluent 10 mM tris pH 7.99
[9] = recon diluent 10 mM tris pH 8.25

SMILES: COc1ccc(Cl)cc1C(=O)NCCc1ccc(S(=O)(=O)NC(=O)NC2CCCCC2)cc1 [glyburide, 5-chloro-N-(4-[N-(cyclohexylcarbamoyl)sulfamoyl]phenethyl)-2-methoxybenzamide]
- prevention of sorption to medical materials by buffering agent [1]: did not prevent sorption to medical materials
- stabilization of glyburide by buffering agent [1]: did not effectively stabilize glyburide
- Solubility ([2]; all measured pH values from pH 4 to pH 9, Britton-Robinson buffer): below 1 mg/mL
- Solubility ([2]; pH 4, 27° C., Britton-Robinson buffer): 4 µg/mL (≈ 8.1 µM)
- Solubility ([2]; pH 6, 27° C., Britton-Robinson buffer): 5 µg/mL (≈ 10.1 µM)
- Solubility ([2]; pH 7, 27° C., Britton-Robinson buffer): 11 µg/mL (≈ 22.3 µM)
- Solubility ([2]; pH 8, 27° C., Britton-Robinson buffer): 80 µg/mL (≈ 162 µM)
- Solubility ([2]; pH 9, 27° C., Britton-Robinson buffer): 600 µg/mL (≈ 1210 µM)
- Solubility ([3]; pH 2, 37° C.): 0.07 µg/mL (≈ 0.142 µM)
- Solubility ([3]; pH 3, 37° C.): 0.06 µg/mL (≈ 0.121 µM)
- Solubility ([3]; pH 5, 37° C.): 0.1 µg/mL (≈ 0.202 µM)
- Solubility ([3]; pH 6, 37° C.): 0.62 µg/mL (≈ 1.26 µM)
- Solubility ([3]; pH 7, 37° C.): 5.62 µg/mL (≈ 11.4 µM)
- Solubility ([3]; pH 8, 37° C.): 51.2 µg/mL (≈ 104 µM)
- Solubility ([3]; pH 9, 37° C.): 98.6 µg/mL (≈ 200 µM)
- Solubility ([3]; pH 11.8, 37° C.): 531.6 µg/mL (≈ 1080 µM)
- Solubility ([4]; formulations of the present disclosure): > 15 µg/mL
- Solubility ([4]; prior art intravenous glyburide dosing solutions): < 5.7 µg/mL
- pH in the final dosing solution ([5]; drug product with NaOH:GLY molar ratio of 13.8 reconstituted into saline with a pH of 7): 9.9
- drug sorption to administration components made of PVC or PUR ([5]; formulation of the present disclosure with the specific buffering agents): eliminated
- dip in glyburide concentration ([5]; formulations of the present disclosure, diluted (final dosing) pH less than 7.8, PVC administration sets (FIG. 3)): at least 10%
- initial drop in the glyburide concentration ([5]; prior art formulation, NaOH:GLY ratio 3:1, 1 L saline bag): about 40%
- initial drop in the glyburide concentration ([5]; prior art formulations with varying NaOH:GLY molar ratios, 1 L saline bag): at least 10%
- pH of reconstituted formulation ([5]; prior art glyburide formulations with sufficiently high base to glyburide ratios): ~10
- sorption in mock infusion test (FIG. 1) ([5]; prior art glyburide formulations, various administration materials): significant sorption immediately at the start of infusion
- binding to filter components ([5]; prior art intravenous glyburide formulations, all filter components (data not shown)): readily and extensively binds to all filter components
- Glyburide content (mg/mL) at T0 h [6, 8]: 0.29 mg/mL
- Glyburide content (mg/mL) at T2 h [6, 8]: 0.29 mg/mL
- Glyburide content (mg/mL) at T24 h [6, 8]: 0.29 mg/mL
- Glyburide content (mg/mL) at T0 h [6, 9]: 0.29 mg/mL
- Glyburide content (mg/mL) at T2 h [6, 9]: 0.29 mg/mL
- Glyburide content (mg/mL) at T24 h [6, 9]: 0.29 mg/mL
- Recon vial pH ([6]; recon diluent 20 mL 10 mM tris pH 7.99): 8.65
- Recon vial pH ([6]; recon diluent 20 mL 10 mM tris pH 8.25): 8.78
- precipitation of glyburide after reconstitution ([6]; recon pH of 8.65 and 8.78, through 24 hours): No precipitation
- final IV bag pH [7]: greater than 9.2
- Solubility (physchem; pH 9.25, aqueous buffer): 480 µg/mL (≈ 972 µM)
- Solubility (physchem; pH 9.37, aqueous buffer): 720 µg/mL (≈ 1460 µM)
